Source: ChEMBL document CHEMBL1201862, “PubChem BioAssay data set” (2004)
Activity calls are given as the source filed them.

Columns and labels:
Cysteine protease ATG4B = biological target: T1, Cysteine protease ATG4B (Homo sapiens, UniProt Q9Y4P1); format: functional;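 note: Fluorescence-based dose-response confirmation assay measuring inhibition of ATG4B activity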
T1 sequence (Q9Y4P1 whole entry): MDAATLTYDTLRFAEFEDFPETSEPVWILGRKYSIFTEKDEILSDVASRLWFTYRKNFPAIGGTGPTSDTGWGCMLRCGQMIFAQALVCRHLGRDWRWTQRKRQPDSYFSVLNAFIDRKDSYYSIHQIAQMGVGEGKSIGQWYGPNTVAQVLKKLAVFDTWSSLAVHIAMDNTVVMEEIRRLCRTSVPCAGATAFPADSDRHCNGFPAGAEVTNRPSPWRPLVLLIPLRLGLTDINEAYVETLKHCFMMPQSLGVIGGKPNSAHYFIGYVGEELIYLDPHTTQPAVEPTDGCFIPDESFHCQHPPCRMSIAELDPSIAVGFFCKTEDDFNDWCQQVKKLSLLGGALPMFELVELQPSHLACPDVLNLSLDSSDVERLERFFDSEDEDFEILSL

Phospholipase A2 = Phospholipase A2 (Homo sapiens, UniProt P04054); format: functional;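 note: confirmatory dose-response counterscreen on phospholipase A2, testing hits that came from an ultra-high-throughput screen for ATG4B inhibitors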
HeLa = test: ATP-based viability loss in HeLa cells – cell-based, CellTiter-Glo luminescence, cherry-pick samples, cytotoxicity control for MITF activator project, dose response (AID 540259); format: functional; settings: Homo sapiens
[1] = system: Streptococcus sp. 'group A'; test: Streptococcus pyogenes SK(-)GAS viability under kanamycin – luminescence, BacTiterGlo, confirmation, counter-screen for streptokinase expression inhibitor project, dose response (AID 1900); format: functional, organism-based
Streptokinase A = biological target: T2, Streptokinase A (Streptococcus pyogenes serotype M1, UniProt P10520); test: viability-normalized secreted streptokinase activity reduction – plasminogen activation absorbance, OD405, dose response (AID 1914); format: functional, Streptococcus pyogenes M1 GAS;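 note: secreted streptokinase activity via plasminogen activation per viability signal from cell pellet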
T2 sequence (P10520 whole entry): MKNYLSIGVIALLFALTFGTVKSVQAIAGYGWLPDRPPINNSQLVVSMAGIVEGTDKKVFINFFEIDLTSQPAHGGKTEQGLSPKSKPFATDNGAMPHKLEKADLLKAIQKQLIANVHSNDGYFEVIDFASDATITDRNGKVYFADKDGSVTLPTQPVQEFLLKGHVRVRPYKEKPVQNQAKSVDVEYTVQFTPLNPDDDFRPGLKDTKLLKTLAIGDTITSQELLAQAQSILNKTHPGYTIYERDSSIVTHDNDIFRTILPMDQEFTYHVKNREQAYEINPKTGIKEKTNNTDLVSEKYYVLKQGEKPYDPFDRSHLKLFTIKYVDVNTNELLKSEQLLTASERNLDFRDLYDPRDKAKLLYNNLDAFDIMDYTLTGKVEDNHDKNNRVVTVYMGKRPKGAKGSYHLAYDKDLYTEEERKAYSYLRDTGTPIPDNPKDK

Streptococcus = test: GAS UMAA2166 growth inhibition – luminescence, BacTiterGlo, counter-screen for streptokinase expression inhibitor project, dose response (AID 1915); format: functional, organism-based;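 note: potency for reduction of bacterial viability or growth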
Caspase-3 = biological target: T3, Caspase-3 (Homo sapiens, UniProt P42574); format: functional;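 note: Dose-response selectivity test against caspase-3 for candidate inhibitors of sentrin-specific proteases (SENPs)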
T3 sequence (P42574 whole entry): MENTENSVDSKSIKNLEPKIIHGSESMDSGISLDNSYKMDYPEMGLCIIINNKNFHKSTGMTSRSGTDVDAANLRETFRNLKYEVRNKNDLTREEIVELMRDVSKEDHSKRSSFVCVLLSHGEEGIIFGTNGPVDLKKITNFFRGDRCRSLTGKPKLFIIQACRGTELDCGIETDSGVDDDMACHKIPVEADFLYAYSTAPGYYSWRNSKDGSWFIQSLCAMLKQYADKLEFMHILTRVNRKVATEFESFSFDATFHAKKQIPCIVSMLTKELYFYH

[2] = biological target: T4, Sentrin-specific protease 7 (Homo sapiens, UniProt Q9BQF6); format: functional;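 note: Luminescence-based dose-response confirmation of ultra-high-throughput screening hits, measuring inhibition of SENP7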
T4 sequence (Q9BQF6 whole entry): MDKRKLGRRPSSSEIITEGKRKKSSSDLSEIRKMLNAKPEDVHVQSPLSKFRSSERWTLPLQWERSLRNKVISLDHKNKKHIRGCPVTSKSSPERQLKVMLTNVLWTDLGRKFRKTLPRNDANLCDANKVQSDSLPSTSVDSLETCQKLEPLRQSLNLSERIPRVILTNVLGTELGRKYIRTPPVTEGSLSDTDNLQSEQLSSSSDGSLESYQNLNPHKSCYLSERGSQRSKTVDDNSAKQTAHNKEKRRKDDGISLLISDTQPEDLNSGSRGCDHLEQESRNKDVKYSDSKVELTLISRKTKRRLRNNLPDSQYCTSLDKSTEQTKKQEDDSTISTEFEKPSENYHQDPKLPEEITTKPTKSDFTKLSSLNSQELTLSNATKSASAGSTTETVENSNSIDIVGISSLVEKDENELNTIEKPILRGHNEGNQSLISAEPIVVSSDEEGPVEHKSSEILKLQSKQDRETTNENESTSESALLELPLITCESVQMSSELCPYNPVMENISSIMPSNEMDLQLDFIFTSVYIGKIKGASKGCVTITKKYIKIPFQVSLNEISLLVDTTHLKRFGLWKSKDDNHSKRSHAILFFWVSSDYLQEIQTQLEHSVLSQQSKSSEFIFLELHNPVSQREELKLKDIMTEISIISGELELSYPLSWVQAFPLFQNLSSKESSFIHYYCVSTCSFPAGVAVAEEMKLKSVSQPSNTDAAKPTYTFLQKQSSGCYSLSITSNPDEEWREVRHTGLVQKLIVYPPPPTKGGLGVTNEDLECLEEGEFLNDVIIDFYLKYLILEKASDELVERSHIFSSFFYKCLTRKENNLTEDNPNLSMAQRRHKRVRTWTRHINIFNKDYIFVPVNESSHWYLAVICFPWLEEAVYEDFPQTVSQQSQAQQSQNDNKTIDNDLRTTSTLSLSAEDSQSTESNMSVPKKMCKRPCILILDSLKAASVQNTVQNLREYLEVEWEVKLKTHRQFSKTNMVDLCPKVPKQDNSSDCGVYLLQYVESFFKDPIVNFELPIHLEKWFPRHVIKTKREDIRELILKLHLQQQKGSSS

[3] = biological target: T5, Sentrin-specific protease 6 (Homo sapiens, UniProt Q9GZR1); format: functional;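 note: Luminescence-based dose-response confirmatory assay of SENP6 inhibition, following up an ultra-high-throughput screen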
T5 sequence (Q9GZR1 whole entry): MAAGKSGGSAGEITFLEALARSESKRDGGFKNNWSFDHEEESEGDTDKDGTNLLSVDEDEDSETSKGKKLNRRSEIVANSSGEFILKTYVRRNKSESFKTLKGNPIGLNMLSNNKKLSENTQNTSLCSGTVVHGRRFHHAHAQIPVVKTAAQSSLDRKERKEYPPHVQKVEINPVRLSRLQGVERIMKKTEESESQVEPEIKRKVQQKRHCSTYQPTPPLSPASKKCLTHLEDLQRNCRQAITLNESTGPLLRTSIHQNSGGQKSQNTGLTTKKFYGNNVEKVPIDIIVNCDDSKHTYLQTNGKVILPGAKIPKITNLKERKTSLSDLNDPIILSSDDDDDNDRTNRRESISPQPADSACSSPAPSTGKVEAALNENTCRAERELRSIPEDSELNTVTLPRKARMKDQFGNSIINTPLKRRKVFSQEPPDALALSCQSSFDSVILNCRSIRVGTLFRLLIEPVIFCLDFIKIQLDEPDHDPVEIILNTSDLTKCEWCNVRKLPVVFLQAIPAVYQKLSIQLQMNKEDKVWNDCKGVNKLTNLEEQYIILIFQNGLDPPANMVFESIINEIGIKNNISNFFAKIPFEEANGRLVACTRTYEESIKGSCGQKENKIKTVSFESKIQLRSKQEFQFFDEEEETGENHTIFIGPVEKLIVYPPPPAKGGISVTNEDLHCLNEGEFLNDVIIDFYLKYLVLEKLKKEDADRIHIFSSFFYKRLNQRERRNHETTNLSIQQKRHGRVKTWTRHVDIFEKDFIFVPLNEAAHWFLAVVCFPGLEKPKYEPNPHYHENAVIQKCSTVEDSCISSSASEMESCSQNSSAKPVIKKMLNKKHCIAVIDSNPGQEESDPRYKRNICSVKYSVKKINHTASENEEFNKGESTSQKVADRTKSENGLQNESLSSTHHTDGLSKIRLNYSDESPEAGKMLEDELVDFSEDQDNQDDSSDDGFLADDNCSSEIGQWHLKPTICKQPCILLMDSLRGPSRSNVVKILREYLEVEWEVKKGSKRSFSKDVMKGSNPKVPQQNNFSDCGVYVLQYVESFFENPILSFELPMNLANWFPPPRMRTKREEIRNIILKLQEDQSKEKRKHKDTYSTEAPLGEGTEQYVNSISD

[4] = biological target: T6, Sentrin-specific protease 8 (Homo sapiens, UniProt Q96LD8); format: functional;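 note: luminescence read-out of SENP8 inhibition, dose-response confirmation following an ultra-high-throughput screen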
T6 sequence (Q96LD8 whole entry): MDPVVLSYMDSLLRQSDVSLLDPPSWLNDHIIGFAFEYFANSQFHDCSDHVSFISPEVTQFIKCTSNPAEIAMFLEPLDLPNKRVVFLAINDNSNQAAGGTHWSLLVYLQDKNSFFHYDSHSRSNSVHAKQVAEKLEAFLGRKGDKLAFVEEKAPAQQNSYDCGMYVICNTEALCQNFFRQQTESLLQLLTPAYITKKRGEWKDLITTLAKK

[5] = THP-1 cell cytotoxicity, dose response, cytotoxicity control for non-replicating M. tuberculosis project (AID 489025); format: functional
[6] = Vero E6 cell cytotoxicity, dose response, cytotoxicity control for non-replicating M. tuberculosis project, secondary assay (AID 492998); format: functional, VeroE6; settings: Vero C1008
cells = format: functional
Cytochrome P450 3A4 = Cytochrome P450 3A4 (Homo sapiens, UniProt P08684);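 note: CYP3A4 tested as one member of a cytochrome P450 panel screen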
Cytochrome P450 2C9 = Cytochrome P450 2C9 (Homo sapiens, UniProt P11712)
Cytochrome P450 2C19 = Cytochrome P450 2C19 (Homo sapiens, UniProt P33261); test: Cytochrome panel assay with activity outcomes. Panel member name: p450-cyp2c19 Compounds with AC50 equal or less than 10 uM are considered active; format: functional; settings: read-out: AC50
H9c2 = test: cells; format: functional, cell-based; settings: Rattus norvegicus, H9c2, Myocardium;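 note: confirmatory concentration-response retest of ultra-high-throughput screening hits for modulation of myocardial damage; cell death induced by hydrogen peroxide oxidative stress; compound pretreatment for 60 min then peroxide exposure for 2 h; potency is for protecting the cells against peroxide damage rather than for killing them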
H4 = test: Luminescence Cell-Based Dose Response HTS to Identify Activators of 5'UTR Stem-Loop Driven Prion Protein mRNA Translation in H4 Neuroglioblastoma Cells. [Related pubchem assays: 1829 (Project Summary), 1814 (Primary HTS)]; format: functional; settings: Homo sapiens
[7] = microbe, parasite or virus in culture; format: functional; settings: Mycobacterium tuberculosis
[8] = viability of uninfected HEp-2 cells – cell-based, HTS, cytotoxicity control for RSV inhibitor project, dose response (AID 2410); format: functional; settings: human respiratory syncytial virus

Chain of Phospholipase A2 (P04054 whole entry): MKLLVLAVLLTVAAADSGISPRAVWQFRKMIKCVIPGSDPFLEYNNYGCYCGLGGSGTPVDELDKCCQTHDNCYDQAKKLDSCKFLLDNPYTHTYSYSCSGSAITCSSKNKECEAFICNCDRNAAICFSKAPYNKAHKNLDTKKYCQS
Chain of Cytochrome P450 3A4 (P08684 whole entry): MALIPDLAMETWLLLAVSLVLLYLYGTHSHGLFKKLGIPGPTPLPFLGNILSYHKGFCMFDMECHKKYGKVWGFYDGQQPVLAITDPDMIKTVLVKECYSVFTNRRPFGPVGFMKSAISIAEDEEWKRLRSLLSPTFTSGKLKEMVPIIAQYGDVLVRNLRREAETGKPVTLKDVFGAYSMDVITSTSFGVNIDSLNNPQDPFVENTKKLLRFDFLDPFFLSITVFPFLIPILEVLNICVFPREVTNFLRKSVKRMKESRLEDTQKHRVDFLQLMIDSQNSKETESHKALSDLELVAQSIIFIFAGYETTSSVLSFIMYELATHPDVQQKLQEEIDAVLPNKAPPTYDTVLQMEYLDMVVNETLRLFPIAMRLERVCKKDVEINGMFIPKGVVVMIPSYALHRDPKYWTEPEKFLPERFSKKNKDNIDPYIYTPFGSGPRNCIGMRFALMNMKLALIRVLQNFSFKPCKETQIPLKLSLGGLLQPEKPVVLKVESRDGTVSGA
Chain of Cytochrome P450 2C9 (P11712 whole entry): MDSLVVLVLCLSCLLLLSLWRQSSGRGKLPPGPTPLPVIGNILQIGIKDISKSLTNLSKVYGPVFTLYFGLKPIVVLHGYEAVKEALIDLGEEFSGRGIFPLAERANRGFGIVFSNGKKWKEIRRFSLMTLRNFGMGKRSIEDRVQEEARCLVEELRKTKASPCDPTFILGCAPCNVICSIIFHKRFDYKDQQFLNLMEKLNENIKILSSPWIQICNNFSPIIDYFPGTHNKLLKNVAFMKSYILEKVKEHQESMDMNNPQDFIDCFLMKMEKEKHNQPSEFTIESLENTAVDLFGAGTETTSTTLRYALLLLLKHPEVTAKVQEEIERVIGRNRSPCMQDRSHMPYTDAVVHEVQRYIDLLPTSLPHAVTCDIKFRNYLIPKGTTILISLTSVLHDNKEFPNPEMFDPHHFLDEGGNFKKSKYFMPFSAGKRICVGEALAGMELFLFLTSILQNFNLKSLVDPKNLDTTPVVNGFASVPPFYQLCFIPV
Chain of Cytochrome P450 2C19 (P33261 whole entry): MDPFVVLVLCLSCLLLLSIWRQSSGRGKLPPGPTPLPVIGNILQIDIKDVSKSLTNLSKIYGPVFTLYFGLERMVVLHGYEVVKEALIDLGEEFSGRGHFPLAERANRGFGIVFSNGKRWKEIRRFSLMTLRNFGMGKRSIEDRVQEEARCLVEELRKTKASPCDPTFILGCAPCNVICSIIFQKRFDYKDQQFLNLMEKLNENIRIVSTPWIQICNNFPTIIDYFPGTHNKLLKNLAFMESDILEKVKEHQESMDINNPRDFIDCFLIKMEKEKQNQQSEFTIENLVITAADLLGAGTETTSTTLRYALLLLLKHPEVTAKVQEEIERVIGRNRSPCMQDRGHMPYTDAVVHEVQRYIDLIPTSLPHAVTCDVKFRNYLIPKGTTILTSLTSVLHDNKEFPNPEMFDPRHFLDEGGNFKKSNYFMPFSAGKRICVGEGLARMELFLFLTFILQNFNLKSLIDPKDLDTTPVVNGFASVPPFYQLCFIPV

SMILES: C=CCn1c(-c2oc3nc(-c4ccccc4)cc(-c4ccccc4)c3c2N)n[nH]c1=S
- IC50 (Cysteine protease ATG4B): 21.5 µM (inactive)
- IC50 (Phospholipase A2): 20.7 µM (inactive)

SMILES: C=CCn1cccc(C(=O)Nc2ccc(Cl)cc2)c1=O
- AC50 (HeLa): 99.8 µM (active)

SMILES: O=C(Nc1nc2c(cc3c4c(cccc42)CC3)s1)c1ccccc1Cl
- IC50 (Cysteine protease ATG4B): > 80 µM (inactive)
- IC50 (Phospholipase A2): 15.7 µM (active)

SMILES: OC(c1ccc(OCc2ccccc2)cc1)c1nnc(-c2ccccc2)o1 (stereo not given)
- EC50 [1]: 19 µM (active)
- EC50 (Streptokinase A): 77.8 µM (active)
- EC50 (Streptococcus): > 150 µM (not active)
- IC50 (Caspase-3): 69.2 µM (active)
- IC50 [2]: 12.8 µM (active)
- IC50 [3]: 33.2 µM (active)
- IC50 [4]: 75.6 µM (active)

SMILES: CC(C)c1nnc(NC(=O)c2c(O)c3cccc4c3n(c2=O)CCC4)s1
- CC50 [5]: 8.21 µM (active)
- CC50 [6]: 17.1 µM (active)
- IC50 (cells): 7.34 µM (active)

SMILES: CCC(C)NC(=O)C1CCN(C(=O)c2ccccc2)CC1 (stereo not given)
- AC50 (Cytochrome P450 3A4): inconclusive

SMILES: O=C(COc1ccc(Cl)cc1)Nc1ccc(N2CCN(C(=O)c3ccco3)CC2)cc1
- AC50 (Cytochrome P450 2C9): 1.12 µM (inconclusive)
- AC50 (Cytochrome P450 3A4): inconclusive

SMILES: C[C@]12CC[C@H]3c4ccc(O)cc4CC[C@@H]3[C@H]1CC[C@@H]2OC(=O)CCC1CCCC1
- AC50 (Cytochrome P450 2C19): 6.31 µM (inconclusive)
- AC50 (Cytochrome P450 3A4): inconclusive

SMILES: CC(C)Nc1cc(C(C)(C)C)nc2c(-c3ccccc3)cnn12
- EC50 [1]: 6.01 µM (active)
- EC50 (Streptokinase A): 13.6 µM (active)
- EC50 (Streptococcus): 15.9 µM (active)
- AC50 (HeLa): 58.2 µM (active)

SMILES: O=C1N=C(N2CCC(Cc3ccccc3)CC2)S/C1=C/c1c[nH]nc1-c1ccccc1
- AC50 (Cytochrome P450 3A4): inconclusive

SMILES: CN(C)S(=O)(=O)c1ccc2[nH]cc(/C=C/c3nc4ccccc4c(=O)n3-c3ccccc3)c2c1
- IC50 (Cysteine protease ATG4B): 18.6 µM (active)
- IC50 (Phospholipase A2): 46.6 µM (inactive)
- IC50 (H9c2): > 79 µM (inactive)

SMILES: COc1ccc2oc3ccc(OC)cc3c(=O)c2c1
- IC50 (Caspase-3): 11 µM (active)
- IC50 [2]: 9.8 µM (active)
- IC50 [3]: 15.1 µM (active)
- IC50 [4]: 69.1 µM (active)

SMILES: O=C(NCCC1=CCCCC1)NC12CC3CC(CC(C3)C1)C2
- EC50 (H4): 6.24 µM (active)
- CC50 [7]: > 40 µM (active)
- AC50 (HeLa): 215 µM (active)

SMILES: Cc1nc(N/N=C\c2ccc3c(c2)OCO3)sc1C
- EC50 [1]: 23.6 µM (active)
- EC50 (Streptokinase A): > 150 µM (not active)
- EC50 (Streptococcus): 31.7 µM (active)
- IC50 (Caspase-3): 33.2 µM (active)
- IC50 [2]: 12 µM (active)
- IC50 [3]: 39.1 µM (active)
- IC50 [4]: 72.7 µM (active)

SMILES: Cc1ccc(S(=O)(=O)Nc2ccccc2/C=N/c2nc3ccccc3n2C(C)C)cc1
- CC50 [8]: 14.9 µM (active)
- IC50 (Cysteine protease ATG4B): 15.1 µM (active)
- IC50 (Phospholipase A2): 13.2 µM (active)
